Experimental data published in patent US20190070124A1, “COMPOSITIONS OF CB2 RECEPTOR SELECTIVE AGONISTS FOR TREATMENT OF MENTAL DISORDERS” (priority 2016, published 2019).
pKi: −log10 of the molar value. Entries after “also recorded” stand apart in the source; their conditions may differ.

Assays:
[1] = system: murine model of schizophrenia; test: Prepulse inhibition (PPI) of the startle reflex in the PCP mouse model; type: in vivo, mice; conditions: age 7-8 weeks
Method: In this experimental model, a weak stimulus (74-90 dB tone) inhibited the subsequent response to a strong stimulus (120 dB tone). Reduced prepulse inhibition of the startle reflex (PPI) was taken as an index of the positive symptoms of schizophrenia (Josselyn and Vaccarino, 1998).
PPI was assessed similarly to the method described by Varty et al. In the employed model, mice were placed in a startle chamber and allowed to acclimate for 5 min. A loudspeaker produced a 65 dB background white noise or the various acoustic pre-pulse stimuli (dB): 74, 78, 82, 86, and 90 (20 ms). A 120 dB (40 ms) stimulus was given first to induce a response to startle. The response of the mouse was transduced and stored by a computer. Each test session lasted for 11 min and consisted of 5 presentations of each of the trial types presented in random order and separated by 15 second intervals. The amount of prepulse inhibition was calculated as % PPI=[1−(startle response for prepulse+pulse)/(startle response for pulse alone)]×100.
The % PPI indicates of level of disruption of the sensorimotor gating system in schizophrenia but also serves as an indicator of memory function. The % PPI after administration of PCP and treatment of BCP in the PPI test also serve as an index of memory function, further supporting the function of the sensorimotor system.

[2] = system: DOI-induced psychotic-like behaviour; type: in vivo, mice
[3] = Hanus et al 1999, cited from earlier work
CB2 receptor = CB2 receptor (Homo sapiens, UniProt P34972); conditions: Chicca A. et al 2014; cited from earlier work
cannabinoid receptor CB2 = cannabinoid receptor CB2 (Homo sapiens, UniProt P34972); conditions: cited from earlier work
[4] = system: murine model of schizophrenia; test: Open-field test (ambulation, rearing, grooming) in the PCP mouse model
Method: Mice were assessed for hyperactivity behavior on postnatal day 16 (FIG. 2). Mice were placed in the center of a transparent glass cube cage 30×40 X31 cm divided into squares of 7.5×7.5 cm. The number of squares and rearing activity were counted for 8 min.
Mice were assessed for hyperactivity behavior on postnatal day 64-66. Mice were placed in the center of a transparent glass cube cage 30×40 X31 cm divided into squares of 7.5×7.5 cm. The number of squares and rearing activity were counted for 8 min.

[5] = system: murine model of schizophrenia; test: PhenoTyper cage behaviour in the PCP mouse model; type: in vivo, mice; conditions: PCP 5 mg/kg injected postnatally
[6] = Body weight in the neonatal PCP mouse model of schizophrenia; conditions: PCP 5 mg/kg injected postnatally
[7] = system: murine model of schizophrenia; test: Elevated Plus Maze test in the PCP mouse model; type: in vivo, mice; conditions: age 13 weeks; PCP 5 mg/kg injected postnatally
Method: Anxiety as measured by the paucity of time spent on the two, anxiety-provoking, open arms (as opposed to the two enclosed arms) of an “Elevated Plus Maze” was used as a parameter of negative symptoms of schizophrenia (Josselyn and Vaccarino, 1998). The plus maze was elevated 50 cm above the table top. Behavior of each mouse was recorded for 5 min by a video camera and scored using the “EthoVision” software (Noldus Information Technology, Wageningen, The Netherlands), measuring the number of entries as well as the amount of time spent in each arm, open or closed. Increased time spent in the closed arms indicated increased anxiety. Increased time spent in the opened arms indicated anxiolytic behavior (reduced stress).

CYP2D6 = CYP2D6 (Homo sapiens, UniProt P10635); test: CYP450 enzymatic metabolism in human liver microsomes; conditions: human liver microsomes 0.1 mg/mL, 20 min, 37 C
Method: CYP450 dependent activities were determined using a known substrate. […] A known inhibitor, such as quinidine, tested at a single concentration 3.00 μM was included as positive control. Incubation mixture containing human liver microsomes (0.1 mg/mL), substrate (5 μM) and standard inhibitor or test compound were warmed at 37 C for 10 minutes. Reactions were initiated by addition of the NADPH (1 mM) and the mixture was incubated for 20 minutes at 37° C. water bath. The organic solvent in the reaction mixture was DMSO. After incubation, ice cold acetonitrile was added to terminate the reaction. Generation of metabolite from the substrate reactions was determined by LC-MS/MS and assessed based on peak area ratios of analyte/IS. Mean was used to calculate the extent of inhibition (expressed as % of control activity).

[8] = Skold et al. 2006; cited from earlier work

Chain of CB2 receptor (P34972 whole entry): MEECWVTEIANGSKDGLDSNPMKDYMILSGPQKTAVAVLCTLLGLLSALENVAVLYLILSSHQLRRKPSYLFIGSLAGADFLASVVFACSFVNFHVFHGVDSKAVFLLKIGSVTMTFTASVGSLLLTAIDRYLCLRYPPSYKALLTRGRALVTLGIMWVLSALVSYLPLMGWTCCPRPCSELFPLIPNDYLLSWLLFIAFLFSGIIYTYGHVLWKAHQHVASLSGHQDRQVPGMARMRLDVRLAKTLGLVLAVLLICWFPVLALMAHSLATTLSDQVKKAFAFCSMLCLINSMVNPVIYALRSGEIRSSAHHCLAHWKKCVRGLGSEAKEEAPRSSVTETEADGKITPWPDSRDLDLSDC
Chain of CYP2D6 (P10635 whole entry): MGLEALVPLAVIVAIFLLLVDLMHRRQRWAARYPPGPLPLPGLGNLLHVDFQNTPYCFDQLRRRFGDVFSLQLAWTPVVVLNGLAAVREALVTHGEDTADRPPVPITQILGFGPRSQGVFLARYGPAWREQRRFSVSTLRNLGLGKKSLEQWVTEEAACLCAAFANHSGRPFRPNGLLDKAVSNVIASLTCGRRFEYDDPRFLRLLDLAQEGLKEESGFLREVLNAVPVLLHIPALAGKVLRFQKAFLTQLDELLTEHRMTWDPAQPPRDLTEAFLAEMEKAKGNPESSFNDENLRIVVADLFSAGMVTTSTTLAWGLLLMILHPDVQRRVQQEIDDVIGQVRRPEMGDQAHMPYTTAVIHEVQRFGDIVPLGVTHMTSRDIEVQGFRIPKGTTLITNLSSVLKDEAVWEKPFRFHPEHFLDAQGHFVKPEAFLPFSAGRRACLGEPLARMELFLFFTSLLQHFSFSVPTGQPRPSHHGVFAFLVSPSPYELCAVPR
Chain of cannabinoid receptor CB2 (P34972 whole entry): as the sequence (P34972 whole entry) above

## CCCCCCC(C)(C)c1cc(OC)c([C@@H]2C=C(CO)[C@@H]3C[C@H]2C3(C)C)c(OC)c1 [HU-308, [(1R,2R,5R)-2-[2,6-dimethoxy-4-(2-methyloctan-2-yl)phenyl]-7,7-dimethyl-4-bicyclo[3.1.1]hept-3-enyl]methanol]
[1]; HU-308 5 mg/kg injected 1 h after PCP postnatally (Cremophor EL:ethanol:saline), 5 mg/kg
  % PPI: reversed the effect of PCP on the % PPI; also recorded: reversed the effect of PCP in the PPI test
[2]; HU-308 i.p. before DOI
  time to inhibition of DOI-induced psychotic-like behaviour: already after about one hour
[2]; HU-308 injected intraperitoneally one to two hours before DOI
  DOI-induced grooming response: reverses the effects of the psychedelic drug DOI on behavioral symptoms in a murine model; also recorded: significantly reversed the effect of DOI on grooming response
[3]
  body weight of adult mice: does not modulate body weight of adult mice
  psychoactivity in vivo: non-psychoactive agent in vivo
[3]; similar age of mice (about PND 63)
  open field assay: no effects of HU-308 in the open field assay

## C/C1=C\CC/C(C)=C/CC(C)(C)/C=C/C1 [alpha-humulene]
CB2 receptor
  CB2 receptor binding: inactivity

## COc1ccc(C(=O)c2c(C)n(CCN3CCOCC3)c3cc(I)ccc23)cc1 [AM630, 6-Iodopravadoline, reference compound]
Cannabinoid receptor CB2
  pKi: 7.49
[4]; PND 17, male mice, AM630 10 mg/kg co-injected with BCP 10 mg/kg 1 h after PCP
  open-field ambulation and rearing, reversal of the BCP effect: reversed the effects of BCP on ambulation and rearing behaviors; also recorded: not significantly different from these of PCP-treated mice; also recorded: reversed the effect of BCP on PCP-induced inhibition of ambulation and rearing

## COc1cc(CC(C)N)c(OC)cc1I.Cl (single isomer, unassigned; (-)) [DOI, (−)-1-(2,5-Dimethoxy-4-iodophenyl)-2-aminopropane hydrochloride, reference compound]
[2]; DOI injected intraperitoneally to mice, hydrochloride
  grooming response, DOI vs control: significantly increased the grooming response

## c1ccc(C2(N3CCCCC3)CCCCC2)cc1 [PCP, Phencyclidine, reference compound]
[5]; PND 91
  frequency of entries to the Hidden Zone, males, PCP vs vehicle: appeared to reduce the frequency of entries to the Hidden Zone in males
  frequency of entries to the wheel, PCP vs vehicle: reduced the frequency of entries to the wheel
  time spent at the Hidden Zone, PCP vs vehicle: increased the time spend at the Hidden Zone
[5]; PND 105
  frequency of entries to the Hidden Zone, PCP vs vehicle: increased the frequency of entries to the Hidden Zone
[6]; weight PND 3-17
  body weight, PCP vs vehicle: significantly reduce the body weight; also recorded: induced a significant reduction in body weight; also recorded: difference between vehicle- and PCP-treated groups in body weight was still significant; also recorded: significantly reduced body weight in male and female mice
[6]; PND 63
  body weight, PCP vs vehicle: no significant difference in the body weight between vehicle-treated mice and PCP-treated mice
[1]; PCP 5 mg/kg injected postnatally
  % prepulse inhibition, PCP vs vehicle: reduced the percent inhibition; also recorded: significant reduction in their ability to adjust to sound stimulus as compared to vehicle treated mice
[4]; PND 16-17, PCP 5 mg/kg injected postnatally
  open-field ambulation and rearing, PCP vs vehicle: significantly inhibited both ambulation and rearing behaviors
[4]; PND 35-37, PCP 5 mg/kg injected postnatally
  open-field locomotor activity, males, PCP vs vehicle: significantly increased the locomotor activity compared with vehicle treatment
[7]
  time spent in distal end of the opened arm, females, PCP vs vehicle: reduced the time spent in the distal end of the opened arm
  time spent in distal end of the opened arm, males, PCP vs vehicle: increased the time spent in the distal end of the opened arm

## Cc1nc2n(c(=O)c1CCN1CCC(c3noc4cc(F)ccc34)CC1)CCCC2 [risperidone, Risperidone, reference compound]
[4]; postnatal day 64, postnatal PCP 5 mg/kg, oral risperidone 0.5 mg/kg twice a week, PND 43-62
  activity in the open field test, male mice: reversed the effect of 5 mg/kg PCP on activity in the open field test of male mice at postnatal day 64
CYP2D6
  inhibition of CYP2D6 enzymatic activity: inhibited the activity of CYP2D6 enzyme
CYP2D6; listed as Risperidone
  inhibition of CYP2D6 enzymatic activity: inhibited CYP2D6 enzymatic activity

## C=C1CC[C@H]2O[C@]2(C)CC[C@@H]2[C@@H]1CC2(C)C [BCP oxide, Caryophyllene oxide]
CB2 receptor
  CB2 receptor binding: inactivity
[8]
  allergenicity: found to be an allergen
